Results taken from patent US20220125765A1, “PHARMACEUTICAL COMBINATIONS COMPRISING MEBENDAZOLE AND A STRONG OR MODERATE CYP1A2 INHIBITOR” (ZEPHAPHARM LTD, priority 2019, published 2022).
Where two headings read alike, the source gives them in different places.

What was measured:
CYP2C19 = CYP2C19 (Homo sapiens, UniProt P33261); experiment: Cytochrome P450 reaction phenotyping, recombinant CYP2C19 (Bactosomes); conditions: for Compound Remaining (% of 0 min): CYP2C19, 5 μM
Description: Incubations were also performed using control Bactosomes™ (no P450 enzymes present) to reveal any non-enzymatic degradation. Control compounds known to be metabolised specifically by each P450 isoform were included. All incubations were performed singularly for each test compound.
Incubations were also performed using control Bactosomes™ (no P450 enzymes present) to reveal any non-enzymatic degradation. Control compounds known to be metabolised specifically by each P450 isoform were included. All incubations were performed singularly for each test compound. […] The reactions were stopped by transferring an aliquot of incubate to quench solvent at the appropriate time points, in a 1:3 ratio. The termination plates were centrifuged at 3,000 rpm for 20 min at 4° C. to precipitate the protein.

NBXF SK-N-AS = experiment: 2D monolayer CellTiter-Blue viability, neuroblastoma SK-N-AS; assay type: cell-based; conditions: 72 h
Description: (§1) Seventeen compounds, including mebendazole (Batch no. […] Efficacy of compounds was assessed using CellTiter-Blue® Cell Viability Assay. Anti-tumor activity is expressed as absolute and relative IC50 and IC70 values, calculated by non-linear regression analysis.

SXFE RD-ES = experiment: 2D monolayer CellTiter-Blue viability, Ewing sarcoma RD-ES; assay type: cell-based; conditions: 72 h
Description: as §1

NBXF KELLY = experiment: 2D monolayer CellTiter-Blue viability, neuroblastoma KELLY; assay type: cell-based; conditions: 72 h
Description: as §1

[1] = target: T1, human OATP1B3 transporter (Homo sapiens, UniProt Q9NPD5); experiment: Uptake into OATP1B3 and empty vector transfected HEK293 cells; assay type: in vitro ADME; conditions: for Uptake rate Mean: 2 min; for Uptake ratio: OATP1B3 vs control
T1 construct: expressed in transfected cells; host or cells: HEK293 (transient transfection)
T1 sequence (Q9NPD5 1-702): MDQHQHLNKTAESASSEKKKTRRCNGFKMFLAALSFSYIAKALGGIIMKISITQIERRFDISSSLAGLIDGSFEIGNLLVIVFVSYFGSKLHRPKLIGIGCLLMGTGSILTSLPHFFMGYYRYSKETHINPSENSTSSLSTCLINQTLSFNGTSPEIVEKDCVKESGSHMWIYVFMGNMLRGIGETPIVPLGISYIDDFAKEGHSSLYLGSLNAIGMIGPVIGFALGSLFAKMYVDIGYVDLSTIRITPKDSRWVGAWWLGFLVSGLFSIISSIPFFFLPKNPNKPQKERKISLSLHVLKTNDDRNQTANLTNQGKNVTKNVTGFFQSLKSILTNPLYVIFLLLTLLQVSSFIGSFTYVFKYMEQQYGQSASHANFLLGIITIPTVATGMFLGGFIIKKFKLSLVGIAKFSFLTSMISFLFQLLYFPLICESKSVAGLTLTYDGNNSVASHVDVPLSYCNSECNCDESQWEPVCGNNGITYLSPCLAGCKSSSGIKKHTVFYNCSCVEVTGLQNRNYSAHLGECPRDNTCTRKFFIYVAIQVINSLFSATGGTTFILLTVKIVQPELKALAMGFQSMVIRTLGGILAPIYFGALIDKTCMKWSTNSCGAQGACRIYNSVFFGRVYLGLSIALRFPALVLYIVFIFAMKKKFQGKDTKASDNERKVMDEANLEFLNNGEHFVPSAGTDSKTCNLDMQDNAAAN
Description: Test compound (at 1 and 10 μM) was incubated with both SLC transporter-expressing HEK293 cells and control (empty vector) HEK293 cells for 2 min.

in vitro = conditions: human, hepatocytes, t½
Description: Mebendazole (1 μM) was incubated with cryopreserved human hepatocytes for 60 min in the absence and presence of cimetidine at 30, 100 and 300 μM) and thiabendazole at 10, 30 and 100 μM and samples taken at the required time points. The amount of test compound remaining at each time point was analysed by LC-MS/MS. Appropriate control compounds were also incubated along with ethoxycoumarin, which was incubated in the absence and presence of cimetidine and thiabendazole.
The final incubation volume was 500 μL. Two control compounds were included, alongside appropriate vehicle control. A positive control compound, ethoxycoumarin, for CYP1A2 was included. The positive control compound was incubated without inhibitor and in the presence of each inhibitor. The reactions were stopped by transferring 50 μL of incubate to 100 μL acetonitrile containing internal standard at the appropriate time points (0, 5, 10, 20, 40 and 60 min). The termination plates were centrifuged at 2500 rpm at 4° C. for 30 min to precipitate the protein.

[2] = Stability in human cryopreserved hepatocytes without and with cimetidine or furafylline (Example 5); assay type: in vitro ADME; conditions: human; for hepatocyte CLint at 1 µM: read-out: intrinsic clearance
Description: The final incubation volume was 500 μL. Two control compounds were included with each species, alongside appropriate vehicle control.
The samples were analysed for mebendazole or ethoxycoumarin using LC-MS/MS.
The final incubation volume was 500 μL.
A positive control compound, ethoxycoumarin, for CYP1A2 was included. […] The samples were analysed for mebendazole or ethoxycoumarin using LC-MS/MS.

human P-gp transporter = human P-gp transporter (Homo sapiens, UniProt P08183); experiment: in vitro; conditions: Caco-2
P-gp = P-gp (Homo sapiens, UniProt P08183); experiment: in vitro; conditions: human
Sequence of P-gp (P08183 whole entry): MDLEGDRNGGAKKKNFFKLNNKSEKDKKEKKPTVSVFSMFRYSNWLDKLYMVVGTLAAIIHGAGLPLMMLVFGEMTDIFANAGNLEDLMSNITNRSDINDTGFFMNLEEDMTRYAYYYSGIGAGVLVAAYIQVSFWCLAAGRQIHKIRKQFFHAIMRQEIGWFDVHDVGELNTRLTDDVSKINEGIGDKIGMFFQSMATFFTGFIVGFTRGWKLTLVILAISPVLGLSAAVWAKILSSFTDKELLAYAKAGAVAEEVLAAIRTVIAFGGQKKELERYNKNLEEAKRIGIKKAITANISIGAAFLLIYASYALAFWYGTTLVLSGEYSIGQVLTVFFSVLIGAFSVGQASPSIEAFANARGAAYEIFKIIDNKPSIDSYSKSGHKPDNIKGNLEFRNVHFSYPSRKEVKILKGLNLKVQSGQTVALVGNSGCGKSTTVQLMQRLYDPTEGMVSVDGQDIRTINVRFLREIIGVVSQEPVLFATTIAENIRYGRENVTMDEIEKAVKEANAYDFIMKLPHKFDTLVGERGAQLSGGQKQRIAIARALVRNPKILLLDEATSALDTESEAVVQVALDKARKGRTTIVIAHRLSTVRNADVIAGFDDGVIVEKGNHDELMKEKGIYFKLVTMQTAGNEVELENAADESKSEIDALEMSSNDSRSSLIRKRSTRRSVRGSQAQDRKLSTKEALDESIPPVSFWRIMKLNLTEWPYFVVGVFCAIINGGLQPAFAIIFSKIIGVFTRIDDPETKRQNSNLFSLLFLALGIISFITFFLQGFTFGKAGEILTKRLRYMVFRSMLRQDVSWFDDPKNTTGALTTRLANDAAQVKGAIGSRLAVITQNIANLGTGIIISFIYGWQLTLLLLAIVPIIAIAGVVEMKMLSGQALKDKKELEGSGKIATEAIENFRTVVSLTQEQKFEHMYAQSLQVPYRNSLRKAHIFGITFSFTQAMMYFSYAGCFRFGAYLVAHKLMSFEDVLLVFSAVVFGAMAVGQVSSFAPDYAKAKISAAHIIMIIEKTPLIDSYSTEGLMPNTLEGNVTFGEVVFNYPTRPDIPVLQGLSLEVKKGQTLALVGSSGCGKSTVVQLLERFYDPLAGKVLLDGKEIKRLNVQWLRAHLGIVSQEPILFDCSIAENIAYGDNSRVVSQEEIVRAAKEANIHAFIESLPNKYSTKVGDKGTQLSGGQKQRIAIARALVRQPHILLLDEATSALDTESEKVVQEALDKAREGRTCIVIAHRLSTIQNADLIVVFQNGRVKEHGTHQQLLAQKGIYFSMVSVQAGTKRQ

Sequence of CYP2C19 (P33261 whole entry, canonical isoform): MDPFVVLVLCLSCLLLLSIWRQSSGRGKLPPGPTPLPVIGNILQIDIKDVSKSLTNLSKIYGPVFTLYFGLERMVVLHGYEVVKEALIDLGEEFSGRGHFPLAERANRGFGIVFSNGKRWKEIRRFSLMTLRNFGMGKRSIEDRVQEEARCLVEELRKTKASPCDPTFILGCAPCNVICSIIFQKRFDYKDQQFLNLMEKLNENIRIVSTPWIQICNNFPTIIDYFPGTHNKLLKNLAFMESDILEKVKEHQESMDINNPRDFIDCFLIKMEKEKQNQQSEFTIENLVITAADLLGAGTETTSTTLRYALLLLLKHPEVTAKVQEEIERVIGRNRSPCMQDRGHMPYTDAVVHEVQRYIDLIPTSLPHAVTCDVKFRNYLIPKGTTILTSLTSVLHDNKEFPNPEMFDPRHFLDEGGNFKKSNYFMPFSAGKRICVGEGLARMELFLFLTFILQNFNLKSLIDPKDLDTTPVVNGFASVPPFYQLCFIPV
Sequence of human P-gp transporter (P08183 whole entry): as the sequence (P08183 whole entry) above

For `COC(=O)Nc1nc2ccc(C(=O)c3ccccc3)cc2[nH]1` [Mebendazole, methyl N-(6-benzoyl-1H-benzimidazol-2-yl)carbamate], the “Compound Remaining (% of 0 min)” value (CYP2C19; 0 min) was 100 % of 0 min, the “Compound Remaining (% of 0 min)” value (CYP2C19; 5 min) was 92.6 % of 0 min and the “Compound Remaining (% of 0 min)” value (CYP2C19; 15 min) was 82.1 % of 0 min. The “Compound Remaining (% of 0 min)” value (CYP2C19; 30 min) was 76.3 % of 0 min, the “Compound Remaining (% of 0 min)” value (CYP2C19; 45 min) was 70.5 % of 0 min and the half-life at 5 μM (CYP2C19; human, recombinant CYP2C19 (Bactosomes), pH 7.4) was 1.55 h. The “Test/Control (%) at Drug Concentration” value (NBXF SK-N-AS; 1.0E+00 μM) was 31%, the “Test/Control (%) at Drug Concentration” value (NBXF SK-N-AS; 1.0E+01 μM) was 21% and the “Test/Control (%) at Drug Concentration” value (NBXF SK-N-AS; 1.0E+02 μM) was 8%. The “Test/Control (%) at Drug Concentration” value (NBXF SK-N-AS; 1.0E−01 μM) was 62%, the “Test/Control (%) at Drug Concentration” value (NBXF SK-N-AS; 1.0E−02 μM) was 91% and the “Test/Control (%) at Drug Concentration” value (NBXF SK-N-AS; 3.2E+00 μM) was 28%. For the same compound, the “Test/Control (%) at Drug Concentration” value (NBXF SK-N-AS; 3.2E+01 μM) was 19%, the “Test/Control (%) at Drug Concentration” value (NBXF SK-N-AS; 3.2E−01 μM) was 36% and the “Test/Control (%) at Drug Concentration” value (NBXF SK-N-AS; 3.2E−02 μM) was 84%. For the same compound, the “Test/Control (%) at Drug Concentration” value (NBXF SK-N-AS; 3.2E−03 μM) was 89%, the “Test/Control (%) at Drug Concentration” value (SXFE RD-ES; 1.0E+00 μM) was 14% and the “Test/Control (%) at Drug Concentration” value (SXFE RD-ES; 1.0E+01 μM) was 6%. The “Test/Control (%) at Drug Concentration” value (SXFE RD-ES; 1.0E+02 μM) was 3%, the “Test/Control (%) at Drug Concentration” value (SXFE RD-ES; 1.0E−01 μM) was 78% and the “Test/Control (%) at Drug Concentration” value (SXFE RD-ES; 1.0E−02 μM) was 88%. The “Test/Control (%) at Drug Concentration” value (SXFE RD-ES; 3.2E+00 μM) was 7%, the “Test/Control (%) at Drug Concentration” value (SXFE RD-ES; 3.2E+01 μM) was 5% and the “Test/Control (%) at Drug Concentration” value (SXFE RD-ES; 3.2E−01 μM) was 29%. For the same compound, the “Test/Control (%) at Drug Concentration” value (SXFE RD-ES; 3.2E−02 μM) was 84%, the “Test/Control (%) at Drug Concentration” value (SXFE RD-ES; 3.2E−03 μM) was 93% and the “Test/Control (%) at Drug Concentration” value (NBXF KELLY; 1.0E+00 μM) was 6%. The “Test/Control (%) at Drug Concentration” value (NBXF KELLY; 1.0E+01 μM) was −1%, the “Test/Control (%) at Drug Concentration” value (NBXF KELLY; 1.0E+02 μM) was −1% and the “Test/Control (%) at Drug Concentration” value (NBXF KELLY; 1.0E−01 μM) was 91%. For the same compound, the “Test/Control (%) at Drug Concentration” value (NBXF KELLY; 1.0E−02 μM) was 99%, the “Test/Control (%) at Drug Concentration” value (NBXF KELLY; 3.2E+00 μM) was −1% and the “Test/Control (%) at Drug Concentration” value (NBXF KELLY; 3.2E+01 μM) was −1%. The “Test/Control (%) at Drug Concentration” value (NBXF KELLY; 3.2E−01 μM) was 75%, the “Test/Control (%) at Drug Concentration” value (NBXF KELLY; 3.2E−02 μM) was 99% and the “Test/Control (%) at Drug Concentration” value (NBXF KELLY; 3.2E−03 μM) was 106%. The “Uptake rate Mean” value ([1]; 1 μM, OATP1B3 HEK293 cells) was 56.6 pmol/mg, the Uptake ratio ([1]; 1 μM) was 1.1 and the “Uptake rate Mean” value ([1]; 1 μM, control (empty vector) HEK293 cells) was 50.1 pmol/mg. The “Uptake rate Mean” value ([1]; 10 μM, OATP1B3 HEK293 cells) was 466 pmol/mg, the Uptake ratio ([1]; 10 μM) was 1.1 and the “Uptake rate Mean” value ([1]; 10 μM, control (empty vector) HEK293 cells) was 414 pmol/mg. For the same compound, the “substrate of the human OATP1B3 transporter” value ([1]; 1 and 10 μM) was “not a substrate”, the half-life at 1 μM (in vitro) was 1.54 h and the half-life at 1 μM ([2]; cryopreserved hepatocytes (suspension), in the presence of cimetidine (30-300 μM), read-out: half-life, maximum) was no more than 2.32 h. The half-life at 1 μM ([2]; cryopreserved hepatocytes (suspension), substrate 1 μM, no inhibitor, read-out: t1/2) was 1.73 h, the hepatocyte CLint at 1 µM ([2]; cryopreserved hepatocytes (suspension), with furafylline 10 µM, substrate 1 μM, 10 μM furafylline) was 2.43 µL/min/1e6 cells and the hepatocyte CLint at 1 µM ([2]; cryopreserved hepatocytes (suspension), with furafylline 30 µM, substrate 1 μM, 30 μM furafylline) was 1.47 µL/min/1e6 cells. The half-life at 1 μM ([2]; cryopreserved hepatocytes (suspension), with furafylline 3-30 µM (maximum half-life over 3, 10 and 30 µM), in the presence of furafylline (3-30 μM), read-out: half-life, maximum) was no more than 15.7 h, the hepatocyte CLint at 1 µM ([2]; cryopreserved hepatocytes, substrate 1 μM, absence of inhibitor (inhibitor experiment)) was 13.3 µL/min/1e6 cells and the hepatocyte CLint at 1 µM ([2]; cryopreserved hepatocytes, substrate 1 μM, hepatocyte stability investigation (no inhibitor arm)) was 19.1 µL/min/1e6 cells. For the same compound, the hepatocyte CLint at 1 µM ([2]; cryopreserved hepatocytes, with cimetidine 30 μM, substrate 1 μM, 30 μM cimetidine) was 13.2 µL/min/1e6 cells, the half-life at 1 μM ([2]; cryopreserved hepatocytes, with cimetidine 30 μM, substrate 1 μM, cimetidine 30 μM, read-out: t1/2) was 1.75 h and the hepatocyte CLint at 1 µM ([2]; cryopreserved hepatocytes, with cimetidine 100 μM, substrate 1 μM, 100 μM cimetidine) was 14.7 µL/min/1e6 cells. The half-life at 1 μM ([2]; cryopreserved hepatocytes, with cimetidine 100 μM, substrate 1 μM, cimetidine 100 μM, read-out: t1/2) was 1.57 h, the hepatocyte CLint at 1 µM ([2]; cryopreserved hepatocytes, with cimetidine 300 μM, substrate 1 μM, 300 μM cimetidine) was 9.98 µL/min/1e6 cells and the half-life at 1 μM ([2]; cryopreserved hepatocytes, with cimetidine 300 μM, substrate 1 μM, cimetidine 300 μM, read-out: t1/2) was 2.32 h. The hepatocyte CLint at 1 µM ([2]; cryopreserved hepatocytes, with furafylline 3 μM, substrate 1 μM, 3 μM furafylline) was 3.47 µL/min/1e6 cells, the half-life at 1 μM ([2]; cryopreserved hepatocytes, with furafylline 3 μM, substrate 1 μM, furafylline 3 μM, read-out: t1/2) was 6.65 h and the half-life at 1 μM ([2]; cryopreserved hepatocytes, with furafylline 10 μM, substrate 1 μM, furafylline 10 μM, read-out: t1/2) was 9.5 h. For the same compound, the half-life at 1 μM ([2]; cryopreserved hepatocytes, with furafylline 30 μM, substrate 1 μM, furafylline 30 μM, read-out: t1/2) was 15.7 h, the passive permeability (human P-gp transporter) was “high passive permeability” and the efflux ratio at 120 min, 10 μM (P-gp; Caco-2) was 1.17. The Papp A→B at 120 min, 10 μM (P-gp; Caco-2, Papp Mean) was 25.4 ×10⁻⁶ cm/s, the Papp B→A at 120 min, 10 μM (P-gp; Caco-2, Papp Mean) was 29.8 ×10⁻⁶ cm/s and the Papp A→B at 120 min, 10 μM (P-gp; Caco-2, Papp Rep 1) was 22.4 ×10⁻⁶ cm/s. It also gave a Papp B→A at 120 min, 10 μM (P-gp; Caco-2, Papp Rep 1) of 30.2 ×10⁻⁶ cm/s, a Papp A→B at 120 min, 10 μM (P-gp; Caco-2, Papp Rep 2) of 28.5 ×10⁻⁶ cm/s and a Papp B→A at 120 min, 10 μM (P-gp; Caco-2, Papp Rep 2) of 29.4 ×10⁻⁶ cm/s. The recovery at 120 min, 10 µM (P-gp; Caco-2, calculated mean % recovery values (range)) was 55.7 to 75.1%.
